Results from paper PMC10518255, “A first-in-class pan-lysyl oxidase inhibitor impairs stromal remodeling and enhances gemcitabine response and survival in pancreatic cancer” (Nature Cancer, 2023).
Where “and” joins values, the source holds several entries; their conditions need not be identical. Equal values may be shown once.

Legend:
[1] = test system: lysyl oxidase family members in KPC CCs; assay: qRT-PCR of lysyl oxidase family members after treatment (Extended Data Figs. 2d, 3h); format: cell-based, mouse; set-up: qRT-PCR LOX (Ct) / qRT-PCR LOX ΔCt / qRT-PCR LOX ΔΔCt KPC CC / qRT-PCR LOXL1 ΔCt / qRT-PCR LOXL1 ΔΔCt KPC CC / qRT-PCR LOXL2 ΔCt / qRT-PCR LOXL2 ΔΔCt KPC CC / qRT-PCR LOXL3 ΔCt / qRT-PCR LOXL3 ΔΔCt KPC CC / qRT-PCR LOXL4 ΔCt / qRT-PCR LOXL4 ΔΔCt KPC CC: dose or concentration left out as unconfirmed;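 as to qRT-PCR LOX ΔCt: 30 µM PXS-5505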;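 as to qRT-PCR LOXL2 ΔCt: 30 µM PXS-5505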;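 as to qRT-PCR LOXL3 ΔCt: 30 µM PXS-5505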;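 as to qRT-PCR LOXL4 ΔCt: 30 µM PXS-5505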
Procedure: A total of 5 × 10^5 KPC CCs or CAFs were seeded and collected after incubation in 21% O2/5% CO2 for 72 h. RNA was isolated using the RNeasy mini kit (QIAGEN) according to the manufacturer’s instructions. Then, 1 μg of RNA was reverse transcribed using the Transcriptor First Strand cDNA Synthesis kit (Roche LifeScience) with anchored-oligo(dT)18 primers or the QuantiTect Reverse Transcription kit (QIAGEN). Real-time PCR was performed using the Roche LightCycler480 (Roche LifeScience) or QuantStudio 7 (Thermo Fisher). The following probe sets from Applied Biosystems, were used: LOX, Mm00495386; LOXL1, Mm01145738; LOXL2, Mm00804740; LOXL3, Mm01184867; LOXL4, Mm00446385; and GAPDH, Mm99999915. Primers and Roche Universal Probe Library probes used for RT–qPCR are described in Supplementary Table 4. Relative mRNA expression levels for each transcript of interest were normalized to GAPDH or ACTB (as indicated) and quantified using the comparative double ΔCt method (unless stated otherwise) for each biological replicate.
Extended Data Fig. 2 Characterization of cells derived from the KPC autochthonous model. a. Immunofluorescence staining of KPC CCs and KPC CAFs for the pancreatic epithelial cell marker CDH1 (green), DAPI (blue) and for the CAF marker α-SMA (yellow), DAPI (blue). Representative images from n = 3 biological independent samples. Scale bar = 30 μm. b. RNAseq reads for CAF and epithelial cell makers in KPC CAFs n = 3 biological independent samples. […] Data is presented as mean values ± SEM. […] Data presented as mean values +/− SD. […] Source data
Data presented as mean values +/− SD. f. […] Data presented as mean values +/− SD. […] Data presented as mean values +/− SD. […] Data presented as mean values +/− SD. Ordinary one-way ANOVA for multiple comparison test performed. Source data

[2] = test system: APMA human PDX tumors; assay: APMA human PDX model, bulk modulus by unconfined compression (Extended Data Fig. 5j); format: in vivo, mouse; set-up: Bulk modulus (stiffness) by unconfined compression testing: unit: kPa (bulk elastic modulus, slope of stress–strain curve); conditions: for Bulk modulus (stiffness) by unconfined compression testing: Extended Data 5J, endpoint human PDX tumours (second model), individual animals
Procedure: Unconfined compression of in vivo tissue samples was carried out on 2–3-mm cross-sectional slices using a TA Instruments Dynamic Hybrid Rheometer (DHR-3, TA Instruments). Tissue samples were placed between upper and lower parallel plate geometries. A constant linear compressive rate of 5 µm s^−1 was applied to the samples and axial force (N) and gap (mm) were collected every 0.01 s. Data were processed and a stress–strain curve for each replicate was obtained. Bulk elastic modulus (kPa) was obtained as the gradient of the linear region of the stress–strain curve corrected for cross-sectional area of sample. Data points represent individual biological replicates.
Subcutaneous PDX studies were performed by implanting early passage PDX pieces (~4 mm^3) or TKCC10 CCs (1.5 × 10^6 cells per mouse in 100 μl PBS/Matrigel 1:1) into female (PDX) or male (TKCC10) 8-week-old immunocompromised nude Balb/c-Fox1nuAusb mice subcutaneously on the left flank. For the duration of the study, mice were kept in conventional caging with environmental enrichment, access to standard chow, water ad libitum and 12-h light–dark cycle at ambient temperature and humidity. […] Tumor size was monitored every second day by calipers. Tumor volume was calculated using the formula (length × width^2)/2. […]
Extended Data Fig. 5 PXS-5505 in combination with gemcitabine in vivo. a. […] Signal is defined as the enzyme activity in the aorta, while noise is measured in the presence of a high concentration (300 µM) BAPN to abolish any lysyl oxidase family activity. […] FITC-dextran (molecular weight: 10 kDa) signal quantification from KPC tumor end point from each treatment group (vehicle n = 3 biologically independent animals, PXS-5505 n = 5 biologically independent animals, Gem n = 5 biologically independent animals, PXS-5505 + Gem n = 5 biologically independent animals). […] P-values determined by Welchs t-test. […] Quantification of red birefringent (mature) collagen fibers from human PDXs at end point after 3 cycles of treatment, treated as indicated. […] P values determined by Welchs t-test. g. […]

[3] = KPC CCs, 50 nM gemcitabine, 48 hours, per replicate
[4] = KPC CCs, 50 nM gemcitabine, 48 hours, vs GAPDH, per replicate
[5] = KPC CC, 48 hour treatment, 30 M PXS-5505, replicates
[6] = KPC CC, 48 hour treatment, PXS-5505, replicates
[7] = KPC CC, 48 hour treatment, PXS-5505, vs GAPDH, replicates

## Nc1ccn([C@@H]2O[C@H](CO)[C@@H](O)C2(F)F)c(=O)n1 [Gem, gemcitabine]
[1]; [3]
  LOX ΔΔCt CC: 0.5966 and 0.4518 and 0.8445
  LOXL1 ΔΔCt CC: 2.011 and 0.7673 and 0.4707
  LOXL2 ΔΔCt CC: 1.535 and 1.563 and 1.2
  LOXL3 ΔΔCt CC: 1.643 and 1.594 and 1.375
  LOXL4 ΔΔCt CC: 0.7511 and 0.9095 and 0.7486
[1]; [4]
  LOX ΔCt: 14.7188 and 15.1199 and 14.2176
  LOXL1 ΔCt: 12.5081 and 13.8984 and 14.6034
  LOXL2 ΔCt: 4.459 and 4.433 and 4.815
  LOXL3 ΔCt: 5.8941 and 5.937 and 6.151
  LOXL4 ΔCt: 8.9744 and 8.6983 and 8.979
[1]; KPC cancer cells, 50 nM gemcitabine for 48 hours
  expression of lysyl oxidase family members: not observed
[2]; APMA human PDX, three rounds of treatment
  tumor stiffness: increase in tumor stiffness
[2]
  Bulk modulus (stiffness) by unconfined compression testing: 269.794 and 256.26 and 76.734 and 111.802 and 206.587 and 133.731 and 307.593 and 168.407 and 179.416 and 246.898

## Cl.Cl.NC/C=C(\F)CS(=O)(=O)c1cccc2cccnc12.O [PXS-5505, (Z)-3-fluoro-4-(quinolin-8-ylsulfonyl)but-2-en-1-amine dihydrochloride monohydrate]
[1]; [5]
  qRT-PCR LOXL1 (Ct): 32.0868 and 30.4856 and 33.7318
  qRT-PCR LOXL2 (Ct): 25.1478 and 23.1006 and 27.5044
  qRT-PCR LOXL3 (Ct): 25.6118 and 24.0525 and 29.0502
  qRT-PCR LOXL4 (Ct): 26.1005 and 25.1765 and 30.4751
[1]; [6]
  qRT-PCR LOX (Ct): 32.5405 and 35.0722 and 35.237
  qRT-PCR LOX ΔΔCt KPC CC: 3.619 and 0.48 and 10.8682
  qRT-PCR LOXL1 ΔΔCt KPC CC: 0.8362 and 0.4014 and 1.074
  qRT-PCR LOXL2 ΔΔCt KPC CC: 0.7412 and 0.4847 and 0.5812
  qRT-PCR LOXL3 ΔΔCt KPC CC: 2.035 and 0.9488 and 0.7538
[1]; [7]
  qRT-PCR LOX ΔCt: 15.5819 and 18.4964 and 13.9954
  qRT-PCR LOXL1 ΔCt: 12.8511 and 13.9099 and 12.4902
  qRT-PCR LOXL2 ΔCt: 5.9121 and 6.525 and 6.263
  qRT-PCR LOXL3 ΔCt: 6.376 and 7.477 and 7.8086
[1]; KPC CC, 48 hour treatment, replicates
  qRT-PCR LOXL4 ΔΔCt KPC CC: 3.255 and 0.9772 and 0.6302
[1]; KPC CC, 48 hour treatment, vs GAPDH, replicates
  qRT-PCR LOXL4 ΔCt: 6.8648 and 8.601 and 9.233
[1]; KPC CCs, PXS-5505 up to 300 µM
  transcription of lysyl oxidase family members: does not significantly alter transcription
[2]
  Bulk modulus (stiffness) by unconfined compression testing: 1.617 and 12.779 and 4.886 and 20.468 and 19.194 and 15.624 and 4.142 and 7.216 and 19.443
